Earlier results on one molecule are cited in publication PMC2605181 (Nature chemical biology, 2008).

The test system of data set [1] is MAGL. The note with it: cited from earlier work.
The conditions of data set [2]: cited from earlier work.

Structures are written as SMILES.

For the molecule `CCCCC/C=C\C/C=C\C/C=C\C/C=C\CCCCN1C(=O)C=CC1=O` [NAM], the “selectivity for MAGL over FAAH and other serine hydrolases” value in data set [1] is “some selectivity”. Besides, in data set [2], the “potentiation of pharmacological effects of 2-AG in vivo” value is reported as “potentiate the pharmacological effects of 2-AG”.
